Reference: paper PMC12516686, “Design of 2‑Aminobenzothiazole Derivatives Targeting Trypanosomatid PTR1 by a Multidisciplinary Fragment Hybridization Approach” (Journal of Medicinal Chemistry, 2025)
Where two headings read alike, the source gives them in different places.

Legend:
[1] = test system: L. infantum intracellular amastigotes; experiment: Activity against L. infantum intracellular amastigotes (luciferase); type: cell-based, Leishmania infantum; settings: for inhibition at 10 µM: Leishmania infantum, read-out: L. infantum % cell growth inhibition
Experimental: Luciferase-expressing L. infantum (MHOM/MA/67/ITMAP-263) axenic amastigotes were cultured in MAA/20 medium at 37 °C with 5% CO2. The parasites were maintained in 5 mL T25 ventilated flasks and subcultured every 7 days at a concentration of 1 × 10^6 cells/mL.
The activity against Leishmania infantum intracellular amastigotes was evaluated following the method described with modifications. THP-1 cells were differentiated into macrophages with PMA as described above. The cells were then infected with L. infantum axenic amastigotes expressing episomal luciferase at a macrophage-to-amastigote ratio of 1:10 for 4 h at 37 °C and 5% CO2. Noninternalized parasites were washed away, and compounds were added at various concentrations to a final volume of 100 μL. A dose–response curve for miltefosine was included in all assays as a quality control. Each condition was tested in quadruplicate. After 72 h of incubation, the medium was replaced with 100 μL of PBS, and 25 μL of Glo-lysis buffer from the Steady-Glo Luciferase Assay System (Promega, Madison, WI, USA) was added. The plates were agitated at 100 rpm for 10 min at room temperature. Subsequently, 30 μL of the Steady-Glo reagent (Promega, Madison, WI, USA) was added and incubated for 15 min in the dark under the same conditions. A total of 140 μL from each well was transferred to white-bottom 96-well plates, and luminescence intensity was measured using a Synergy 2 multimode reader (Biotek, Winooski, VT, USA). The antileishmanial effect was evaluated by comparison of the nontreated infected cells. The IC50 was determined (for miltefosine) through nonlinear regression analysis using GraphPad Prism version 8.1.1 for Windows (GraphPad Software, San Diego, CA, USA). Results represent the average of at least three independent experiments.

[2] = target: T1, CYP2C9 (Homo sapiens, UniProt P11712); experiment: Cytochrome P450 assay (P450-Glo), isoform 2C9; type: in vitro ADME
T1 construct: purchased Promega; host or cells: baculovirus-infected insect cells
Text: (§1) 3A4. The Promega P450-Glo assay platform was used with microsomal preparations of
(§2) cytochrome P450s from baculovirus-infected insect cells. […]

[3] = test system: 786-O cell line; experiment: Mitochondrial toxicity (MitoTracker Red uptake, high content imaging); type: cell-based; settings: for IC50: read-out: mitotox. IC50
Text: Mitochondrial toxicity caused by the synthesized compounds. Uptake of Mito-
Tracker Red (chloromethyl-X-rosamine) to the 786-O cell line was detected with high content
imaging. […]

[4] = target: T2, CYP2C19 (Homo sapiens, UniProt P33261); experiment: Cytochrome P450 assay (P450-Glo), isoform 2C19; type: in vitro ADME
T2 construct: purchased Promega; host or cells: baculovirus-infected insect cells
Text: as §1, §2

[5] = target: T3, hERG (Homo sapiens, UniProt Q12809); experiment: hERG liability assay
T3 construct: purchased Invitrogen

[6] = test system: A549 cells; experiment: Cytotoxicity against A549 cells (CellTiter-Glo); type: cell-based
Experimental: (§3) Cytotoxicity against A549 cells. The CellTiter-Glo assay from Promega was used. It detects the cellular ATP content, which is directly proportional to the number of viable cells. The A549 cells were obtained from DSMZ (German Collection of Microorganisms and Cell Cultures, Braunschweig, Germany) and cultured in Dulbecco’s modified Eagle medium (DMEM) with FCS (10% v/v), streptomycin (100 µg/mL), and penicillin G (100 U/mL)23. […]

[7] = target: T4, CYP3A4 (Homo sapiens, UniProt P08684); experiment: Cytochrome P450 assay (P450-Glo), isoform 3A4; type: in vitro ADME
T4 construct: purchased Promega; host or cells: baculovirus-infected insect cells
Text: as §1, §2

[8] = target: T5, CYP1A2 (Homo sapiens, UniProt P05177); experiment: Cytochrome P450 assay (P450-Glo), isoform 1A2; type: in vitro ADME
T5 construct: purchased Promega; host or cells: baculovirus-infected insect cells
T5 sequence (P05177 1-516): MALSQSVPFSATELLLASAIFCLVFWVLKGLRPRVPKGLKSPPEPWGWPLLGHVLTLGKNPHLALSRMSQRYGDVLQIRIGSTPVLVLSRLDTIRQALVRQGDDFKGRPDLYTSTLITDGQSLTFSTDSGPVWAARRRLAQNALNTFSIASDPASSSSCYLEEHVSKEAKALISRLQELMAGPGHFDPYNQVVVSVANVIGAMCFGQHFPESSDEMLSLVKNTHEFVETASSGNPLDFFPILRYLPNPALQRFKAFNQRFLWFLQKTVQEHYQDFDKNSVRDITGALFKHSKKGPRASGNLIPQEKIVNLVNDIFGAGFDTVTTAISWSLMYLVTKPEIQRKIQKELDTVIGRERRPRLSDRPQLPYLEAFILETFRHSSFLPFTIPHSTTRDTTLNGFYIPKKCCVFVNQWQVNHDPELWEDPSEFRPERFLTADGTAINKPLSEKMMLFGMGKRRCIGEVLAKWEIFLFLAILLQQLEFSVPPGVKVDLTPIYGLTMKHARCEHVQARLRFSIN
Text: as §1, §2

[9] = Cytotoxicity against A549 cells (CellTiter-Glo); type: cell-based; settings: human, A549 cells; for GI50: read-out: A549 cytotoxicity GI50 (50% growth inhibition)
Experimental: as §3

[10] = at 10 μM, intracellular amastigotes

T4 sequence (P08684 whole entry, canonical isoform): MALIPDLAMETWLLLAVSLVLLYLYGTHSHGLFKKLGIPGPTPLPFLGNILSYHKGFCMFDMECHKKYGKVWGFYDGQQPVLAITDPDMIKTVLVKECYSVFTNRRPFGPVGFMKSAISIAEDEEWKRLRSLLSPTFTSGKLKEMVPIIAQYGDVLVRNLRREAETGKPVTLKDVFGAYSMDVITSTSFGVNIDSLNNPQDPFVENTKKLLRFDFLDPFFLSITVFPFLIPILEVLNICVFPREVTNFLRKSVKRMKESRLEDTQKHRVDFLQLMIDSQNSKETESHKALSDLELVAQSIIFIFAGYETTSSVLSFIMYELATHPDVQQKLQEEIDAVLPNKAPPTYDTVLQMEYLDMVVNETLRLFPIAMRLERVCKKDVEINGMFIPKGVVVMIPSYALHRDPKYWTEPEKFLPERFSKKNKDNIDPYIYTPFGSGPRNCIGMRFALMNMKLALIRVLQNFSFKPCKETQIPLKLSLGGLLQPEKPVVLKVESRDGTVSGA
T3 sequence (Q12809 whole entry): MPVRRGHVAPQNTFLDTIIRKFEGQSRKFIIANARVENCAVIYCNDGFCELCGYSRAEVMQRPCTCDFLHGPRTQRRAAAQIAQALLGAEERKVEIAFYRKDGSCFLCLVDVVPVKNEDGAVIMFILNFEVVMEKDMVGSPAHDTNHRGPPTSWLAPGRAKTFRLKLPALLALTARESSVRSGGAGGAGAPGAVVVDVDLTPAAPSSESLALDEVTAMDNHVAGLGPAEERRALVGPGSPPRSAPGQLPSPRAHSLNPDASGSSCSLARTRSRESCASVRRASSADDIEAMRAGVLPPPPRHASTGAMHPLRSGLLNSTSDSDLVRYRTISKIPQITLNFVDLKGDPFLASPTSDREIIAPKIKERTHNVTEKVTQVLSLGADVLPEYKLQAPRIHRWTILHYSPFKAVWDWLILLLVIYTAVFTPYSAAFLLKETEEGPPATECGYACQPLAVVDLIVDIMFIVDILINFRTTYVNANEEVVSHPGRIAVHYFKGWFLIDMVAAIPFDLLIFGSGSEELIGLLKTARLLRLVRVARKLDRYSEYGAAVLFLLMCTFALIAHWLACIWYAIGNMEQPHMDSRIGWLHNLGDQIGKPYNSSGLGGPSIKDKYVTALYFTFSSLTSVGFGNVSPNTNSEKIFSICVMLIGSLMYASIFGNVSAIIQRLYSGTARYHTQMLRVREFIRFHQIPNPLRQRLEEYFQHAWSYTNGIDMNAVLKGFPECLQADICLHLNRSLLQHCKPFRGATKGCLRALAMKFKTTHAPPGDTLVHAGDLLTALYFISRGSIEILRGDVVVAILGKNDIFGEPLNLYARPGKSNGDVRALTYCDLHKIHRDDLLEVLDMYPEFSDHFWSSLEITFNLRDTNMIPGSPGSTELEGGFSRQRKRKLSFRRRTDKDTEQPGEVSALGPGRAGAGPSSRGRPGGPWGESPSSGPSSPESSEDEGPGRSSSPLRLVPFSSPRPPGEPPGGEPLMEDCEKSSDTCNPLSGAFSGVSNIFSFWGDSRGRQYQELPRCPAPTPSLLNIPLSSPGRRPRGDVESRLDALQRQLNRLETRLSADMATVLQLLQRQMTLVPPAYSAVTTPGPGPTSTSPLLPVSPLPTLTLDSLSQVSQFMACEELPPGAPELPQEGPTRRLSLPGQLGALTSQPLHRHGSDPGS
T2 sequence (P33261 whole entry, canonical isoform): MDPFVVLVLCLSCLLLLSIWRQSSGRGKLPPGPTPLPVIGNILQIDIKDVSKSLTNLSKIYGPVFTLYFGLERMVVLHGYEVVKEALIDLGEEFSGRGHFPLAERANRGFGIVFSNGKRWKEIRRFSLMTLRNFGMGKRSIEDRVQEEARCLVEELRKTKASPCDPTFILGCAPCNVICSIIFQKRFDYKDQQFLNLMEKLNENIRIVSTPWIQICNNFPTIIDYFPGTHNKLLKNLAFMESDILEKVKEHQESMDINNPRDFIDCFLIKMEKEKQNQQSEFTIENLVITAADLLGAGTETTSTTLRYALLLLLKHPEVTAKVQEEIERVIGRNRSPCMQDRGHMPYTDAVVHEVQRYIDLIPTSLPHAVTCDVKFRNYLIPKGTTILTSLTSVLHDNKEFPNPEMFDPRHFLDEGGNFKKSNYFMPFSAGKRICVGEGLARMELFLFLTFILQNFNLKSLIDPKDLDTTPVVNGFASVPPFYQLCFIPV
T1 sequence (P11712 whole entry, canonical isoform): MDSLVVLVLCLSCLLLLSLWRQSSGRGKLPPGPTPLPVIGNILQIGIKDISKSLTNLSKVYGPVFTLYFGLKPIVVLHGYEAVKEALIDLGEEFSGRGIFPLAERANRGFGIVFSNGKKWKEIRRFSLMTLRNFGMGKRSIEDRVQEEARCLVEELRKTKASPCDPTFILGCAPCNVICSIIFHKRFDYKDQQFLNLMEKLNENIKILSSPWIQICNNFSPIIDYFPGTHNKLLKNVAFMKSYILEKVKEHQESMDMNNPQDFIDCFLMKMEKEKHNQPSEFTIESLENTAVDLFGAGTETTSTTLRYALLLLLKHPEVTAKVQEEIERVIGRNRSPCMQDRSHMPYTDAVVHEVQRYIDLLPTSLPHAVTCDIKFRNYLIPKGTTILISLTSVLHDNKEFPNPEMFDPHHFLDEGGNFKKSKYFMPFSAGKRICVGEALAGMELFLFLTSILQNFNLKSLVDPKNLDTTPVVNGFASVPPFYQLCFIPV

Row | Compound | inhibition at 10 µM [1, 10] [%] | IC50 ([2]; read-out: CYP 2C9 IC50) [µM] | mitotox. IC50 [3] | IC50 ([3]; Homo sapiens, 786-0) [µM] | IC50 ([4]; read-out: CYP 2C19 IC50) [µM] | IC50 [5] [µM] | A549 cytotoxicity GI50 (50% growth inhibition) [6] | A549 cytotoxicity LC50 (50% lethal concentration) [6] | A549 cytotoxicity TGI (total growth inhibition) [6] | IC50 ([7]; read-out: CYP 3A4 IC50) [µM] | CYP 1A2 IC50 [8] | GI50 [9] [µM] | IC50 [8] [µM] | hERG IC50 [5] | other results
1 | Nc1nc2ccc(C(=O)N(CCc3ccc(Cl)c(Cl)c3)c3ccccc3)cc2s1 [Compound 1e, 2-amino-N-(3,4-dichlorophenethyl)-N-phenylbenzo[d]thiazole-6-carboxamide] | < 0 | – | – | – | – | – | – | – | – | – | – | – | – | – | activity at 10 µM ([2]; human, at 10 µM compound concentration, read-out: CYP 2C9 % residual activity): 35.3%; activity at 10 µM ([3]; Homo sapiens, 786-0, at 10 µM compound concentration, read-out: mitotox. % residual activity): -33.8%; activity at 10 µM ([4]; human, at 10 µM compound concentration, read-out: CYP 2C19 % residual activity): 31.1%; activity at 10 µM ([5]; human, at 10 µM compound concentration, read-out: hERG % residual activity): -34.8%; activity at 10 µM ([6]; Homo sapiens, A549, at 10 µM compound concentration, printed in GI50 column, read-out: A549 % residual activity): 103%; activity at 10 µM ([7]; human, at 10 µM compound concentration, read-out: CYP 3A4 % residual activity): 26.3%; activity at 10 µM ([8]; human, at 10 µM compound concentration, read-out: CYP 1A2 % residual activity): 37.7%
2 | Nc1nc2ccc(C(=O)NCCc3ccc(Br)cc3)cc2s1 [Compound 2e, 2-amino-N-(4-bromophenethyl)benzo[d]thiazole-6-carboxamide] | < 0 | 3.6 | mitotoxic | 0.2 | 2.5 | 3.2 | max | max | max | 4.7 | max | – | – | – | –
3 | Nc1nc2ccc(C(=O)NCCc3cccc(Br)c3)cc2s1 [Compound 2d, 2-amino-N-(3-bromophenethyl)benzo[d]thiazole-6-carboxamide] | < 0 | 74.5 | max | – | 2.9 | 3.2 | – | max | 85.5 µM | 5.4 | max | 60.4 | – | – | –
4 | Nc1nc2ccccc2n1Cc1ccc(Cl)c(Cl)c1 [I, 1-(3,4-dichlorobenzyl)-1H-benzimidazol-2-amine, reference compound] | 29 ± 2 | 4.2 | – | 38.6 | 0.3 | 0.85 | – | – | – | 3.1 | – | – | 29.9 | – | –
5 | Nc1nc2ccc(C(=O)N(CCc3ccc(Cl)c(Cl)c3)C3CC3)cc2s1 [Compound 1b, 2-amino-N-cyclopropyl-N-(3,4-dichlorophenethyl)benzo[d]thiazole-6-carboxamide] | ~50 | 5 | – | 0.6 | 4.7 | – | – | max | 54.6 µM | 0.7 | max | 13.8 | – | max | L. infantum % cell growth inhibition [1, 10]: 46±13%
6 | Nc1nc2ccc(CN(Cc3ccc(Cl)c(Cl)c3)C3CC3)cc2s1 [Compound 1d, 6-((cyclopropyl(3,4-dichlorobenzyl)amino)methyl)benzo[_d_]thiazol-2-amine] | < 0 | 8.8 | – | 1.5 | 1.2 | – | – | – | 34.4 µM | 4 | – | 12.6 | 67.1 | max | LC50 (50% lethal concentration) [9]: 63.1 µM
7 | Nc1nc2ccc(C(=O)NCCc3ccc(Cl)cc3)cc2s1 [Compound 2c, 2-amino-N-(4-chlorophenethyl)benzo[d]thiazole-6-carboxamide] | < 0 | 9.6 | – | 40 | 4.2 | 4.5 | max | max | max | – | max | – | – | – | CYP 3A4 IC50 [7]: max
8 | Nc1nc2ccc(C(=O)NCCc3cccc(Cl)c3)cc2s1 [Compound 2b, 2-amino-N-(3-chlorophenethyl)benzo[d]thiazole-6-carboxamide] | – | – | max | – | – | 2.8 | – | max | 95.9 µM | – | max | 54.5 | – | – | inhibition at 10 µM [1]: < 0%; IC50 [2]: 35.2 µM; IC50 [4]: 6.3 µM; IC50 [7]: 6.5 µM
9 | Nc1nc2ccc(C(=O)N(Cc3ccc(Cl)c(Cl)c3)C3CC3)cc2s1 [Compound 1c, 2-amino-N-cyclopropyl-N-(3,4-dichlorobenzyl)benzo[d]thiazole-6-carboxamide] | 24 ± 3 | 48.3 | – | 3.8 | 2.9 | – | – | – | 61.3 µM | 1.3 | max | 24.6 | – | max | LC50 (50% lethal concentration) [9]: 100 µM
10 | Nc1nc2ccc(C(=O)NCCc3ccccc3)cc2s1 [Compound 2a, 2-amino-N-phenethylbenzo[d]thiazole-6-carboxamide] | < 0 | 37.7 | max | – | 25.6 | 4.5 | max | max | max | 19.9 | – | – | 100 | significant blocking of hERG channels | –
